Experimental data from patent US20030005927A1, “Process and device for inhalation of particulate medicaments” (priority 1996, published 2003).
“Also recorded” adds a separate entry of the source. Where a name gives a salt, the structure may show the parent alone.

Test: Spray drying of solutions; particle geometric diameter and hollow/solid structure by photomicrograph
Type: physicochemical
Conditions: for Geometric Diameter (average particle diameter) / Hollow or Solid: spray dried particles from aqueous solution; for Geometric Diameter (average particle diameter): VIRTIS spray dryer; for Hollow or Solid: photomicrographs
Procedure: Medicament powder of each of the two medicaments, albuterol sulfate and amiloride HCl (abbreviated herein as Alb S and Amil HCl, respectively), is employed in this example. Also, the excipient, lactose, is employed in this example. Aliquots of each of the medicaments, and also of lactose, are spray dried as follows.
15 g of Alb S (lot no. W 1946 FB) are dissolved in 300 ml of water to create a 5% solution. Similarly, 3.479 g of Amil HCl (lot no. 9007H 902) are diluted in water to 1000 ml to create a solution. Likewise, 15 g of lactose (lot no. 1NC25, 605 from Sheffield Products of Norwich, N.Y.) are diluted in water to 150 ml to create a solution.
Each solution is respectively spray dried using a VIRTIS™ (a spray dryer commercially available from The Virtis Company of Gardiner, N.Y.) with each of the air from the nozzle and from the blower set at its respective maximum value under the following conditions of temperature and rate, as summarized in Table A below: […]

| Compound | Geometric Diameter (average particle diameter) | Hollow or Solid (HCl) | Hollow or Solid | Hollow or Solid (listed as lactose) | average particle diameter of the largest particulate (spray dried, photomicrographs FIGS. 6 and 7) |
| --- | --- | --- | --- | --- | --- |
| N=C(N)NC(=O)c1nc(Cl)c(N)nc1N [Amil HCl, amiloride HCl] | 1 to 5 μm | spherical hollow particulates; also recorded: hollow spheres | – | – | – |
| OC[C@H]1O[C@@H](O[C@H]2[C@H](O)[C@@H](O)C(O)O[C@@H]2CO)[C@H](O)[C@@H](O)[C@H]1O (some centres unmarked) [Lactose, lactose] | 2 μm | – | hollow spheres | spherical hollow particulates | about 17 μm |
| albuterol sulfate [Alb S] | 1 to 5 μm | – | dimpled solid structures; also recorded: dimpled solids | – | – |
